The data set can be described thus: in vitro. Conditions: human, hela cells, % viability.

For the compound `Cc1ccc(CN(CCCN(C)C)Cc2cnc(C)n2C)o1` [CBK283188], the viability (usually a read-out of living cells in per cent, often relative to untreated cells) at 28.5 h, 10 µM amounted to 95.4%.
Still for that read-out and setting: the value for `Cc1ccccc1OC(C)C(=O)Nc1nnc[nH]1` (centres unmarked) [CBK268605] was 85.6%; that for `Cc1cc(CNC(=O)C2CC(=O)N(Cc3ccccn3)C2)ccc1F` (centres unmarked) [CBK305557] was 77.3%.
On the same count and under the same terms, the value for `c1cncc(CN2CCC[C@@H]2CN2CCCC2)c1` [CBK149101C] was 99.3%.
Same read-out and setting: the value for `OCC1CCCN1c1nccnc1-c1cccc(O)c1` (centres unmarked) [CBK089052] was 109%.
In the case of `COCCNC(=O)N1CCN(CCc2ccccc2)CC1` [CBK158909], the viability at 28.5 h, 10 µM stood at 97.3%.
Same read-out and setting: the value for `Oc1cccc(-c2cn3ccnc3c(NC3CC3)n2)c1` [CBK038076] was 101%.
On the same count and under the same terms, the value for `CCOc1ccc(C(=O)C2=C(O)C(=O)N(CCN(C)C)C2c2ccc(N(C)C)cc2)c(C)c1` (centres unmarked) [CBK264603] was 110%; that for `Cn1nccc1NC(=O)Nc1ccc(CN2CCOC2=O)cc1` [CBK306279] was 88%.
`O=C(NCC1CCCO1)C1CCCN(C(=O)c2cc(-c3ccccn3)[nH]n2)C1` (centres unmarked) [CBK210893]: the viability at 28.5 h, 10 µM came out at 91.7%.
Still for that read-out and setting: the value for `CC(=O)Nc1cccc(NC(=O)N2CCCC(CO)C2)c1` (centres unmarked) [CBK156049] was 108%; that for `COc1cc(-c2cnc3[nH]c(=O)n(Cc4ccco4)c3n2)cc(OC)c1OC` [CBK064755] was 96.3%; that for `Cc1ccc(NC(=O)c2cnc3n(c2=O)CCS3)cc1` [CBK287376] was 108%.
In the case of `CC[C@H]1C[N@@]2CC[C@H]1C[C@@H]2CNS(=O)(=O)c1cccc(C#N)c1` [CBK288746], the viability at 28.5 h, 10 µM came to 96.9%.
Regarding `CCOC(=O)N1CCN(S(=O)(=O)c2cc(C(=O)O)c(Cl)cc2Cl)CC1` [CBK296975], the viability at 28.5 h, 10 µM turned out to be 96.2%.
Still for that read-out and setting: the figure for `NS(=O)(=O)c1ccc(NC(=O)CCCN2C(=O)/C(=C/c3ccc(Cl)cc3)SC2=S)cc1` [CBK261302] is 87.9%; for `O=C(N/N=C/c1cccnc1)c1cccc(F)c1` [CBK261689] it is 101%; for `CN(C)Cc1c(O)ccc2occ(C(=O)c3ccccc3)c12` [CBK261965] it is 94%.
Same read-out and setting: the figure for `COc1cccc(NC(=O)CN(c2cccc(C(C)=O)c2)S(C)(=O)=O)c1` [CBK267502] is 111%; for `Cc1cc([N+](=O)[O-])ccc1/N=C\c1ccc(C(=O)O)cc1` [CBK262058] it is 95.4%.
On the same count and under the same terms, the value for `c1ccc(-c2nc(C3CCCC3)n3ccccc23)cc1` [CBK149260] was 93.3%; that for `CCOC(=O)Nc1ccc2ccccc2n1` [CBK028207] was 87.3%.
For `CCC1CCCCN1C(=O)c1ccc(OC)c(OC)c1` (centres unmarked) [CBK084527], the viability at 28.5 h, 10 µM was determined as 117%.
Same read-out and setting: the value for `Cc1cc(C)c(C)c(S(=O)(=O)NCCOCCO)c1C` [CBK269153] was 88.6%; that for `Cc1cccc(-c2ncc(C(=O)NCCN3CCOCC3)cc2-c2ccc(O)cc2)c1` [CBK037435] was 105%.
Take `COC(=O)Nc1ccccc1N1CCN(CCCCN2CCN(c3ccccc3)C2=O)CC1` [CBK024372C]: the viability at 28.5 h, 10 µM came out at 91.8%.
Same read-out and setting: the figure for `O=C(Cn1cncn1)N[C@H]1C2CCCCC2[C@@H]1c1ccccc1` (some centres unmarked) [CBK283011] is 93.3%; for `O=C1N=C(NC2C3CC4CC(C3)CC2C4)OC12CCCC2` (centres unmarked) [CBK113576] it is 94.2%.
Consider `N#Cc1ccc(-c2csc(NC(=O)c3ccc(Cl)s3)n2)cc1` [CBK287321], for which the viability at 28.5 h, 10 µM was determined as 100%.
Consider `O=C(Nc1ccc2c(c1)COC1(CCNCC1)O2)c1cc2cc(Cl)ccc2[nH]1` [CBK091529T], for which the viability at 28.5 h, 10 µM (bulk resorufin, single well) was 71.3%.
On to `COc1ccc(OCCCn2ccn(C(=O)CCCOc3ccc(Cl)cc3)c2=O)cc1` [CBK106662], for which the viability at 28.5 h, 10 µM was 94.3%.
On the same count and under the same terms, the value for `CCOC(=O)Cn1c(-c2cccs2)cc2cccnc21` [CBK282267] was 95.2%.
